Test results taken from patent US20070299072A1, “KV1.5 POTASSIUM CHANNEL INHIBITORS” (Wyeth, priority 2006, published 2007).

Legend:
Format in all cases: cell-based
Kv1.5 = molecular target: T1, Kv1.5 (Homo sapiens, UniProt P22460); assay: Kv1.5 Patch Clamp EP (whole cell patch clamp; single point at 1 μM and IC50); conditions: for inhibition at 1 µM: single point at 1.0 μM, Kv1.5 stably over expressed in HEK or LTK- cells; for IC50: concentration response
T1 construct: expressed in transfected cells; host or cells: HEK or LTK- cells
Description: The external solution is standard Tyrodes solution. […] Inhibition was measured at the end of the 1 second pulses and expressed relative to controls. Initial Kv1.5 inhibition is estimated by single point determinations done at 1 μM.

HERG = molecular target: T2, HERG (Homo sapiens, UniProt Q12809); assay: HERG Patch Clamp EP (whole cell patch clamp, tail currents; single point at 10 μM and IC50); conditions: for inhibition at 10 µM: human, HEK cells stably overexpressing HERG, single point at 10 μM, HERG in HEK cells, read-out: HERG % Inhib. @ 10 μM; for IC50: concentration response
T2 construct: expressed in transfected cells; host or cells: HEK cells
Text: The external solution is standard Tyrodes solution.

L-type calcium channels = assay: FLIPR L-type Calcium Channel Assay (calcium influx in HL-1 cells after KCl); conditions: read-out: L-type Ca2+ IC50
Description: HL-1 cells expressing endogenous L-type calcium channels are removed from culture flasks using trypsin, plated on fibronectin/gelatin-coated, clear-bottomed, black-walled 96-well microplates in Claycomb media (JRH Biosciences #51800) containing 10% fetal bovine serum, 4 mM L-glutamine, and 10 μM norepinephrine, and grown to confluency overnight. The next day, growth medium is aspirated from confluent cell monolayers and replaced with 100 μL per well Tyrode's solution (in mM: 130 NaCl, 4 KCl, 1.8 CaCl2, 1.0 MgCl2, 20 HEPES, 10 glucose, pH 7.35) and 50 μL per well FLIPR Calcium Assay kit, component A (#R-8033, Molecular Devices Corporation) and incubated for 60 min. in a 5% CO2 37° C. incubator. 50 μL per well test compounds are added to the plates and further incubated for 15 min. in a 5% CO2 37° C. incubator. All final solutions contain the anion exchange inhibitor, probenecid (2.5 mM). The 96-well plates are then placed in the center position of the FLIPR 1 (Fluorometric Imaging Plate Reader, Molecular Devices Corporation). Cell monolayers in each well are simultaneously illuminated at 488 nm with an Argon ion laser, and fluorescence emission is monitored using a 510-570 nm bandpass filter and a cooled CCD camera. To depolarize the plasma membrane and activate L-type calcium channels, 50 μL per well of 20 mM KCl (final concentration) are dispensed simultaneously to all 96 wells using the FLIPR's automatic 96-well pipettor. Fluorescence measurements are captured for 5 min. following KCl addition. Calcium influx, expressed as % control, is calculated for each concentration of test compound and concentration-response curves and IC50 values are generated using GraphPad Prism 4.0.

T1 sequence (P22460 whole entry): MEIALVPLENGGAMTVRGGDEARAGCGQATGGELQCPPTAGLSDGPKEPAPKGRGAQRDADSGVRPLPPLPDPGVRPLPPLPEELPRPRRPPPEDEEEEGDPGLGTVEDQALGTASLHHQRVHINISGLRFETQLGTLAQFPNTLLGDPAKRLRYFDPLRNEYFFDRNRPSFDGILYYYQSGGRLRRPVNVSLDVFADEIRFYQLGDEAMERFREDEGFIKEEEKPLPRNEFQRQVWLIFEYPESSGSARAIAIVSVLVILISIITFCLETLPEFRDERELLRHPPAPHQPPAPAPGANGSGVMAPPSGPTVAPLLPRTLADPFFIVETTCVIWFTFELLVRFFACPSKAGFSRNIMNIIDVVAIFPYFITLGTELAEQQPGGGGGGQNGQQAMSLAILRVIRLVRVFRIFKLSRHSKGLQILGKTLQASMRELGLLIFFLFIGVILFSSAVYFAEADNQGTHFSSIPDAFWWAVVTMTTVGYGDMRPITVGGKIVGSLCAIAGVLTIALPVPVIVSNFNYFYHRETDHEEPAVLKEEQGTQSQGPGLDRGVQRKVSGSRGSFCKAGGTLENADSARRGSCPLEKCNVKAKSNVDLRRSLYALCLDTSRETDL
T2 sequence (Q12809 whole entry): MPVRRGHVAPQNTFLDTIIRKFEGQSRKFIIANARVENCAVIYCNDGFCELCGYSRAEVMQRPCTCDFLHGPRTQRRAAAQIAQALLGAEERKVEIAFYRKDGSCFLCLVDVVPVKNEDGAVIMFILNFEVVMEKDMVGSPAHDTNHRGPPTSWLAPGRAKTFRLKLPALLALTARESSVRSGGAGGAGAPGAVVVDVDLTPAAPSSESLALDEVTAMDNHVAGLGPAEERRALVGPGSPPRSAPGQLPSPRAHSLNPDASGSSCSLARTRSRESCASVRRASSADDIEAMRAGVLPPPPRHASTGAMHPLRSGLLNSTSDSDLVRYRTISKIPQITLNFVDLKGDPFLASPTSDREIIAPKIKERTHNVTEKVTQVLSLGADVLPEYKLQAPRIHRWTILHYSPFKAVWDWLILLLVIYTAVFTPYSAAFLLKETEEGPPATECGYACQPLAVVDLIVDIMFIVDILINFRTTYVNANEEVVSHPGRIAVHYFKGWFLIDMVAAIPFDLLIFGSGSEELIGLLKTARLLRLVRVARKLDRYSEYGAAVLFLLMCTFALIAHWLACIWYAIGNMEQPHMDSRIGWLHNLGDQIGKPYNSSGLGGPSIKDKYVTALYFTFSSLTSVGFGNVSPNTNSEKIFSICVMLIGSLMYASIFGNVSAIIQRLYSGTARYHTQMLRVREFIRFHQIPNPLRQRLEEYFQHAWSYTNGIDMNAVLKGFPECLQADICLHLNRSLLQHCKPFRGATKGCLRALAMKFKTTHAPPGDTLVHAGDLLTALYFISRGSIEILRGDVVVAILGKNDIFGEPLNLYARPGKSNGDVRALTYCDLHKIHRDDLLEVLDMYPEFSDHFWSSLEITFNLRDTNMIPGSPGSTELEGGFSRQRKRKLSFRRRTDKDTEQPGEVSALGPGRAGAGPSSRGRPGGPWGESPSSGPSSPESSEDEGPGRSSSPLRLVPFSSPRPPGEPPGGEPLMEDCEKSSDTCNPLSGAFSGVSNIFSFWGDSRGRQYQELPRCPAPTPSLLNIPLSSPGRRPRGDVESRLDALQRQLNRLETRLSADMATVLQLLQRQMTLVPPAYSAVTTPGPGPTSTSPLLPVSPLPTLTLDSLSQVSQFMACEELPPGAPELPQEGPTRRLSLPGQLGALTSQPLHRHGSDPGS

| Compound | inhibition at 1 µM (Kv1.5) [%] | IC50 (L-type calcium channels) [µM] | IC50 (Kv1.5) [µM] | inhibition at 10 µM (HERG) [%] | IC50 (HERG) [µM] |
| --- | --- | --- | --- | --- | --- |
| COc1ccc(CCN2C(=O)C3(CCN(S(C)(=O)=O)CC3)N(C)C2c2ccc(C(C)(C)C)cc2)cc1 (stereo not shown) [Compound 33, 2-(4-tert-Butylphenyl)-8-methanesulfonyl-3-[2-(4-methoxyphenyl)ethyl]-1-methyl-1,3,8-triaza-spiro[4.5]decan-4-one] | 80 | 25 | – | 54 | – |
| COc1ccc(CCN2C(=O)C3(CCN(S(C)(=O)=O)CC3)N(C)C2c2ccc(C(F)(F)F)cc2)cc1 (stereo not shown) [Compound 34, 2-(4-Trifluoromethylphenyl)-8-methanesulfonyl-3-[2-(4-methoxyphenyl)ethyl]-1-methyl-1,3,8-triaza-spiro[4.5]decan-4-one] | 80 | 18 | – | 50 | – |
| CCOC(=O)N1CCC2(CC1)C(=O)N(CCc1ccc(OC)cc1)C(c1ccc(C3CC3)cc1)N2C (stereo not shown) [Compound 35, Ethyl 2-(4-cyclopropylphenyl)-3-[2-(4-methoxyphenyl)ethyl]-1-methyl-4-oxo-1,3,8-triazaspiro[4.5]decane-8-carboxylate] | 96 | 30 | – | 65 | – |
| COc1ccc(CCN2C(=O)C3(CCN(C(=O)OC(C)(C)C)CC3)N(C)C2c2ccc(OC)cc2)cc1 (stereo not shown) [Compound 37, tert-Butyl 2-(4-methoxyphenyl)-3-[2-(4-methoxyphenyl)ethyl]-1-methyl-4-oxo-1,3,8-triazaspiro[4.5]decane-8-carboxylate] | 83 | 14 | – | 12 | – |

More lines, main results first:

| inhibition at 1 µM (Kv1.5) [%] | IC50 (L-type calcium channels) [µM] | IC50 (Kv1.5) [µM] | Compound | inhibition at 10 µM (HERG) [%] | IC50 (HERG) [µM] |
| --- | --- | --- | --- | --- | --- |
| 94 | 23 | – | COc1ccc(CCN2C(=O)C3(CCN(C(=O)c4ccno4)CC3)N(C)C2c2ccc(C3CC3)cc2)cc1 (stereo not shown) [Compound 42, 2-(4-Cyclopropylphenyl)-8-(isoxazol-5-yl-carbonyl)-3-[2-(4-methoxyphenyl)ethyl]-1-methyl-1,3,8-triazaspiro[4.5]decan-4-one] | 81 | – |
| 73 | 15 | – | CC(=O)N1CCC2(CC1)C(=O)N(CCCc1ccccc1)C(c1ccc(C3CC3)cc1)N2C (stereo not shown) [Compound 44, 8-Acetyl-2-(4-cyclopropylphenyl)-3-(3-phenylpropyl)-1-methyl-1,3,8-triazaspiro-[4.5]decan-4-one] | 61 | – |
| 77 | 6.2 | 0.287 | CN1C(c2ccc(C3CC3)cc2)N(CCCc2ccccc2)C(=O)C12CCN(C(=O)C1CC1)CC2 (stereo not shown) [Compound 45, 8-Cyclopropanecarbonyl-2-(4-cyclopropylphenyl)-3-(3-phenylpropyl)-1-methyl-1,3,8-triazaspiro-[4.5]decan-4-one] | 87 | 3.3 |
| 68 | 17 | – | COc1ccc(C2N(CCCc3ccccc3)C(=O)C3(CCN(C(=O)C4CC4)CC3)N2C)cc1 (stereo not shown) [Compound 46, 8-Cyclopropanecarbonyl-2-(4-methoxyphenyl)-3-(3-phenylpropyl)-1-methyl-1,3,8-triazaspiro-[4.5]decan-4-one] | 32 | – |
| 86 | 14 | 0.321 | CN1C(c2ccc(C3CC3)cc2)N(CCCc2ccccc2)C(=O)C12CCN(C(N)=O)CC2 (stereo not shown) [Compound 49, 2-(4-Cyclopropylphenyl)-1-methyl-4-oxo-3-(3-phenylpropyl)-1,3,8-triazaspiro-[4.5]decane-8-carboxylic acid amide] | 67 | 7.7 |
| 72 | 16 | – | CN1C(c2ccc(C(C)(C)C)cc2)N(CCCc2ccccc2)C(=O)C12CCN(C(N)=O)CC2 (stereo not shown) [Compound 50, 2-(4-tert-Butylphenyl)-1-methyl-4-oxo-3-(3-phenylpropyl)-1,3,8-triazaspiro-[4.5]decane-8-carboxylic acid amide] | 37 | – |
